Measured values published in patent US9474790B2, “Stable, protracted GLP-1/glucagon receptor co-agonists for medical use” (Novo Nordisk A/S, priority 2013, dated 2016).
Numbered stars: 1 amine (or outer) side, 2 acyl side, 3 side chain; on linkers, the order of the positions; unused ones are H or OH. Square brackets hold non-standard residues; d marks the D form. Side chains are listed from the residue outwards. Peptide text beside a SMILES is read from it. * marks the point of attachment. C18 diacid = O=C(O)CCCCCCCCCCCCCCCCC(=O)*; γGlu = O=C(O)[C@H](CCC(=O)[*:2])N[*:1]; AEEA = NCCOCCOCC(=O)O; Aib = CC(C)(N)C(=O)O

How the values were obtained:
[1] = Thioflavin T (ThT) fibrillation assay for physical stability; format: physicochemical; conditions: 250 μM in 10 mM HEPES buffer, pH 7.5, 37° C., shaking 960 rpm
Method in brief: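 Peptide at 250 μM in 10 mM HEPES pH 7.5 with 1 μM ThT, at 37° C with 960 rpm orbital shaking. Fluorescence (ex 444/em 485 nm) read every 20 min after 10 min pre-incubation; sigmoidal fit gives lag time (t0−2τ) and kapp (1/τ). Recovery is RP-HPLC peptide in the centrifuged, 0.22 μm-filtered supernatant as % of initial.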

human glucagon receptor = molecular target: T1, human glucagon receptor (Homo sapiens, UniProt P47871); test: Glucagon receptor potency, CRE luciferase reporter gene assay in BHK cells; format: cell-based; conditions: BHK cells expressing human glucagon receptor, read-out: EC50 GlucR
T1 construct: expressed in transfected cells; host or cells: BHK cells (parent BHK570, CRE luciferase clone BHK/KZ10-20-48), clone pLJ6'-4-25
T1 sequence (P47871 26-477): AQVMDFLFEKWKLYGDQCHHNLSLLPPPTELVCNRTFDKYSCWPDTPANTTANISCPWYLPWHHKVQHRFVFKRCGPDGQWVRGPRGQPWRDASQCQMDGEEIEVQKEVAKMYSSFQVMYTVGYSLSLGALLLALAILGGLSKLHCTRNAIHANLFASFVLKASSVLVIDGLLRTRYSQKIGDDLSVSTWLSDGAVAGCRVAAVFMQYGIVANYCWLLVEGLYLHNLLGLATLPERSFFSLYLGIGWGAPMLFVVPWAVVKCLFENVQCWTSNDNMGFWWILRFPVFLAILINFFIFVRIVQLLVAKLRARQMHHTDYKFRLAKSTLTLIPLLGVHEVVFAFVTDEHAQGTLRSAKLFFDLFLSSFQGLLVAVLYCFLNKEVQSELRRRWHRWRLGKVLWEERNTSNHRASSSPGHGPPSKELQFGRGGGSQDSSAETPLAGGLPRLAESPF
Method: The purpose of this example was to test the potency, of the glucagon derivatives of the invention, in vitro. The in vitro potency is the measure of human GLP-1 receptor or glucagon receptor activation, respectively, in a whole cell assay.
In vitro potency was determined by measuring the response of human GLP-1 or glucagon receptor, respectively, in a reporter gene assay. The assay was performed in a stably transfected BHK cell line that expresses either the human GLP-1 receptor or the human glucagon receptor and contains the DNA for the cAMP response element (CRE) coupled to a promoter and the gene for firefly luciferase (CRE luciferase). […] When assay incubation was completed, the luciferase substrate (luciferin) was added and the enzyme converted luciferin to oxyluciferin and produces bioluminescence. The luminescence was measured as the readout for the assay.
The cells used in this assay (clone pLJ6′-4-25) were BHK cells with BHK570 as a parent cell line expressing the CRE luciferase gene (clone BHK/KZ10-20-48) and were established by further transfection with the human glucagon receptor (clone pLJ6′ in pHZ-1 vector).
The cells were cultured at 5% CO2 in DMEM medium with 10% FBS, 1×GlutaMAX, 1 mg/ml G418, 240 nM MTX (methotrexate) and 1% pen/strep (penicillin/streptomycin). They were aliquoted and stored in liquid nitrogen. Before each assay, an aliquot was taken up and washed three times in PBS before being suspended at the desired concentration in assay medium. For 96-well plates the suspension was made to give a final concentration of 5×10EE3 cells/well.
The following chemicals were used in the assay: Pluronic F-68 (10%) (Gibco 2404), ovalbumin (Sigma A5503), DMEM w/o phenol red (Gibco 11880-028), 1 M Hepes (Gibco 15630), Glutamax 100× (Gibco 35050) and steadylite plus (PerkinElmer 6016757).
Assay Medium consisted of DMEM w/o phenol red, 10 mM Hepes, 1× GlutaMAX, 2% Ovalbumin and 0.2% Pluronic F-68.
Cell stocks were thawed in a 37° C. water bath. Cells were washed three times in PBS. The cells were counted and adjusted to 5×10EE3 cells/50 μl (1×10EE5 cells/ml) in Assay Medium. A 50 μl aliquot of cells was transferred to each well in the assay plate.
Stocks of the test compounds and reference compounds were diluted to a concentration of […] in Assay Medium. Compounds were diluted 10-fold to give the following concentrations: 2×10EE-6 M, 2×10EE-7 M, 2×10EE-8 M; 2×10EE-9 M, 2×10EE-10 M, 2×10EE-11 M, 2×10EE-12 M and 2×10EE-13 M. For each compound a blank assay medium control was also included.
A 50 μl aliquot of compound or blank was transferred from the dilution plate to the assay plate. Compounds were tested at the following final concentrations: 1×10EE-6 M, 1×10EE-7 M, 1×10EE-8 M; 1×10EE-9 M, 1×10EE-10 M, 1×10EE-11 M and 1×10EE-12 M and 1×10EE-13 M.
The assay plate was incubated for 3 h in a 5% CO2 incubator at 37° C. The assay plate was removed from the incubator and allowed to stand at room temperature for 15 min. A 100 μl aliquot of steadylite plus reagent was added to each well of the assay plate (reagent is light sensitive). Each assay plate was covered with aluminum foil to protect it from light and shaken for 30 min at room temperature. Each assay plate was read in a Perkin Elmer TopCount NXT instrument.
The data from the TopCount instrument was transferred to GraphPad Prism software. The software performed a non-linear regression (log(agonist) vs response-Variable slope (four parameter)). EC50 values were calculated by the software and reported in pM.

[2] = Chemical stability assessment by RP-UPLC; format: physicochemical; conditions: 333 μM, 8 mM phosphate buffer pH 7.3, 37° C. vs 5° C.
Method: The purpose of this assay was to assess the chemical stability of the glucagon derivatives of the invention in aqueous solutions.
Chemical stability of glucagon derivatives or analogues was investigated by RP-UPLC separation and UV detection. Lyophilized samples were dissolved in a 8 mM Phosphate buffer pH 8.6, followed by adjustment to pH 7.3.using HCl to a final concentration of 333 μM. Samples were incubated for 14 days at 5° C. and 37° C. followed by RP-UPLC analysis. Purity was defined as the area percentage of the main peak in relation to the total area of all integrated peaks in each chromatogram. Purity loss after 14 days at 37° C. was determined as the difference in purity between the samples incubated at 5° C. and 37° C., divided by the purity of the sample after incubation for 14 days at 5° C.
RP-UPLC analysis was performed using a Waters BEH130 2.1 mm×150 mm, 1.7 μm column operated at 50° C. and a flow rate of 0.4 mL/min using a mobile phase system consisting of A: 0.05% TFA in MQ-water B: 0.05% TFA in Acetonitrile. UV-detection was performed at 215 nm. The typical gradient profile used for most of the samples is shown below.
For some individual derivatives or analogues eluting at substantially different retention times compared with the majority of derivatives or analogues, some adjustments to the gradient profile were made to better enable purity assessment comparison across samples. The data confirmed the improved chemical stability of the glucagon derivatives of this invention.

THT assay Lag time (Ex. 76) [1]: 45 h
EC50 (human glucagon receptor): 0.024 nM
Purity loss; 14 days at 37° C. [2]: 2%
Structure (SMILES): CC(C)C[C@H](NC(=O)[C@H](CC(C)C)NC(=O)[C@H](Cc1c[nH]c2ccccc12)NC(=O)[C@H](CCC(N)=O)NC(=O)[C@@H](NC(=O)[C@H](Cc1ccccc1)NC(=O)[C@H](CCC(=O)O)NC(=O)[C@H](CCCNC(=N)N)NC(=O)[C@H](C)NC(=O)[C@H](CCCNC(=N)N)NC(=O)[C@H](CCCNC(=N)N)NC(=O)[C@H](CC(C)C)NC(=O)[C@H](CC(=O)O)NC(=O)[C@H](CC(C)C)NC(=O)[C@H](Cc1ccc(O)cc1)NC(=O)[C@H](CCCCN)NC(=O)[C@H](CO)NC(=O)[C@H](CC(C)C)NC(=O)[C@H](CC(=O)O)NC(=O)[C@H](CO)NC(=O)[C@@H](NC(=O)[C@H](Cc1ccccc1)NC(=O)[C@@H](NC(=O)CNC(=O)[C@H](CCC(N)=O)NC(=O)C(C)(C)NC(=O)[C@@H](N)Cc1c[nH]cn1)[C@@H](C)O)[C@@H](C)O)C(C)C)C(=O)N[C@@H](CC(N)=O)C(=O)N[C@@H](CCCCNC(=O)CC[C@H](NC(=O)CC[C@H](NC(=O)COCCOCCNC(=O)CC[C@H](NC(=O)CCCCCCCCCCCCCCCCC(=O)O)C(=O)O)C(=O)O)C(=O)O)C(N)=O [Example 38, N^ε29-[(4S)-4-carboxy-4-[[(4S)-4-carboxy-4-[[2-[2-[2-[[(4S)-4-carboxy-4-(17-carboxyheptadecanoylamino)butanoyl]amino]ethoxy]ethoxy]acetyl]amino]butanoyl]amino]butanoyl]-[Aib2,Leu10,Leu16,Arg20,Glu21,Leu27,Lys29]-Glucagon amide] (H-H[Aib]QGTFTSDLSKYLDLRRAREFVQWLLNK([γGlu-γGlu-AEEA-γGlu-C18 diacid])-NH2; N-terminus assumed)
